Entries after “also recorded” stand apart in the source; their conditions may differ.
Columns and labels:
Albino mice = assay: Nicotine-induced convulsions and death in mice; type: in vivo
Procedure: Albino mice were divided into different groups (N=5) and injected with different doses of nicotine dissolved in water. The animals were injected (i.p) with doses 0.8, 1.6, 3.2 and 6.4 mg/kg. The animals were continuously observed for 2 hours for appearance of any changes in behavior such as tremors, convulsions (clonic or tonic), abnormal movements changes in tail position and shapes, changes in locomotor activity and death.
Then after 5 minutes nicotine LD25 was then administered and the animals were observed continuously for any changes in behavior, convulsions or death. The time of convulsions and death were recorded.

[1] = cited from earlier work
Male Wistar rats = assay: Nicotine and food consumption in rats; type: in vivo
Procedure: Male Wistar rats (200 g body weight) were divided at random into various groups (N=6 animals per group). Each animal was placed in a stainless steel cage and provided with a known weight of normal rat chow food pellets and drinking bottle containing a known volume of aqueous 0.025% sodium carboxymethylcellulose containing either nicotine acid tartarate to provide a final concentration of 40 μg/ml (in case of control groups) or the same concentration of nicotine plus the indicated concentrations of the whole extract, one of its fractions or peganine. The latter were added in form of their emulsions in 0.25% aqueous sodium carboxymethylcellulose in volumes that provide a final concentration of 0.025% of sodium carboxymethylcellulose in the drinking fluid. The animals were allowed both food and the drinking liquid ad libitum. The room temperature where the animals were placed was maintained at 23±2° C. The light cycle was kept at 12 h light and 12 h dark. The relative humidity was maintained at 75±5%. Both food and drinking liquid consumptions were measured every 2 days and at the end of the treatment which continued for complete seven consecutive days.
All results were reported as their means±s. e. mean with N=number of experiments. Statistical significance between control and treated groups were performed using student's t-test.

[2] = tested on: dopamine turnover in the mesolimbic system; settings: dose 5.6 mg/kg; nicotine 1 mg/kg; rats; cited from earlier work
[3] = in vivo; cited from earlier work
[4] = peganine 140 mg/100 ml (1.4 mg/ml) + nicotine 40 μg/ml, vs control
[5] = peganine 140 mg/100 ml + nicotine 40 μg/ml in drinking water, 7 days

CN1CCCC1c1cccnc1 (stereo not drawn) [Nicotine]
Actions (Albino mice; Nicotine 1.6 mg/kg (i.p)): f) No death; also recorded: a) Increase in locomotor activity; also recorded: b) Raising of tail; also recorded: c) Tremors; also recorded: d) Shaking of the body; also recorded: e) Increase in respiratory rate | Actions (Albino mice; Nicotine 3.2 mg/kg (i.p)): a) Tremors; also recorded: b) Fanning of tail; also recorded: c) Convulsions (Clonic-type); also recorded: d) Tremors; also recorded: e) Salivation; also recorded: f) No death | Actions (Albino mice; Nicotine 6.4 mg/kg (i.p)): a) Circular movements; also recorded: b) Convulsions; also recorded: c) Death after 3 minutes

O[C@H]1CCN2Cc3ccccc3N=C12 [peganine, 1,2,3,9-tetrahydropyrolo[2,1-b]quinazolin-3-ol]
Effect on isolated gut ([1]; isolated gut): inhibit peristalsis of isolated gut | Cardiac effect ([1]; isolated heart): negative inotropic effect of peganine with reduced coronary flow | % decrease in food consumed (Male Wistar rats; [4]): 77.8% | % decrease in nicotine consumed (Male Wistar rats; [4]): 79% | Liquid consumed daily per 200 g rat per day (Male Wistar rats; [5]): 5.5 ± 0.13 mL | Quantity of food consumed per 200 g rat per day (Male Wistar rats; [5]): 5.66 ± 0.3 g | Quantity of nicotine consumed per day (Male Wistar rats; [5]): 0.22 mg

c1cnc2cc3c(cc2n1)[C@@H]1CNC[C@H]3C1 [vareniciline]
Effect on nicotine-induced increase in dopamine turnover [2]: significantly blocked

(−)-cytisine
Blood brain barrier penetrability [3]: poor blood brain barrier penetrability
